Read-outs that look alike come from different tables or passages of the source.
Legend:
CRTH2 = CRTH2 (Homo sapiens (Human), UniProt Q9Y5Y4); assay: CRTH2 receptor binding inhibitory activity ([3H]-PGD2 displacement, membranes of CRTH2-expressing K562 cell); settings: [3H]-PGD2 displacement, membrane of CRTH2-expressing K562 cell, read-out: Ki
Procedure: Cell membrane was prepared from CRTH2-expressing K562 cell. The cell membrane (20 μg/well) was mixed with reaction buffer (50 mM Tris/HCl, pH 7.4, 10 mM MgCl2). Then, [^3H]-PGD2 was added to the mixture and incubated for 60 min at room temperature. […] Then, the mixture was filtrated with glass paper immediately. The filter paper was washed several times and radio activity on the filter was measured. Specific binding was defined as difference between total and non-specific binding (radio activity with 10 μM PGD2). Ki values for each compound were calculated from displacement curve.

Human DP1 receptor = Human DP1 receptor (Homo sapiens (Human), UniProt Q13258); assay: Human DP1 inhibitory activity in DP1-expressing cell (PGD2-induced cAMP); assay type: cell-based; settings: category of cAMP IC50, human DP1 receptor expressing Jurkut cell
Procedure: Compounds were categorized as AA (cAMP is less than 100 nM) and A (cAMP is more than 100 nM and less than 5000 nM) as shown in Table 99 and 100.

[1] = CRTH2 receptor binding, categorized AAAA/AAA

Human DP1 receptor, sequence (Q13258 whole entry): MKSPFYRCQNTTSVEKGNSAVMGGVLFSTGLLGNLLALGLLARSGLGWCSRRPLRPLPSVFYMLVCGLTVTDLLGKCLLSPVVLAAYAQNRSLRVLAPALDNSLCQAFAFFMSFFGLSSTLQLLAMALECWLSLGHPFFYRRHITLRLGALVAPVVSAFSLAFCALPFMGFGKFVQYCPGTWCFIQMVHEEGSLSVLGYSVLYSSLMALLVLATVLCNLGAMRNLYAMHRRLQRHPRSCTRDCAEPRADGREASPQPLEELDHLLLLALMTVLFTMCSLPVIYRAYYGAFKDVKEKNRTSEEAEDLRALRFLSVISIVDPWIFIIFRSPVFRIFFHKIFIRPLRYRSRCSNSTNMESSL
CRTH2, sequence (Q9Y5Y4 whole entry): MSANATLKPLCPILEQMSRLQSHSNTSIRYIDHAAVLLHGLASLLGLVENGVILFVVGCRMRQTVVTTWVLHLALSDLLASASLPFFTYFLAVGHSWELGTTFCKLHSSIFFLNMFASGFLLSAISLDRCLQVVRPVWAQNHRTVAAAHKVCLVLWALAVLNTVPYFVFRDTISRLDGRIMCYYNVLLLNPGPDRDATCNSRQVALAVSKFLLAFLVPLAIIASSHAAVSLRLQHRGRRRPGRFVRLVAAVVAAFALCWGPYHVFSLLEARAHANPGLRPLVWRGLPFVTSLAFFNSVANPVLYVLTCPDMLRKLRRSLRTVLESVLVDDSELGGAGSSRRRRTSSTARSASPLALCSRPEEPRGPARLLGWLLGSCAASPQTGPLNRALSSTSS

| SMILES | Ki (CRTH2; [1]) [nM] | IC50 (Human DP1 receptor) [nM] | Ki (CRTH2) [nM] |
| --- | --- | --- | --- |
| COc1ccc(S(=O)(=O)N2C[C@@H](C)[C@@H](n3nc(CC(=O)O)c4ccc(F)cc43)C2)cc1 [Compound I-112] | < 100 | < 100 | – |
| COCCCOc1ccc(S(=O)(=O)N2C[C@@H](C)[C@@H](n3nc(CC(=O)O)c4ccccc43)C2)cc1 [Compound I-274] | < 100 | 100 to 5000 | – |
| CCOc1ccc(S(=O)(=O)N2C[C@H](n3nc(CC(=O)O)c4ccccc43)C[C@@H]2C)cc1 [Compound I-196] | < 100 | < 100 | – |
| CC(C)Oc1ccc(S(=O)(=O)N2C[C@H](n3nc(CC(=O)O)c4ccc(F)cc43)C[C@@H]2c2ccncc2)cc1 [Compound I-361] | 100 to 5000 | 100 to 5000 | – |
| Cc1ccc2c(CC(=O)O)nn([C@H]3CN(S(=O)(=O)c4ccc(OC(C)C)cc4)C[C@]3(C)O)c2c1 [Compound I-87] | < 100 | 100 to 5000 | – |
| CC(C)Oc1ccc(S(=O)(=O)N2C[C@H](n3nc(CC(=O)O)c4ccc(F)cc43)C[C@H]2c2ccccc2)cc1 [Compound I-359] | < 100 | 100 to 5000 | – |
| CC(C)Oc1ccc(S(=O)(=O)N2C[C@H](n3nc(CC(=O)O)c4ccccc43)[C@](C)(F)C2)cc1 [Compound I-88] | < 100 | < 100 | – |
| CCOc1ccc(S(=O)(=O)N2C[C@@H](C)[C@@H](n3nc(CC(=O)O)c4ccc(Cl)cc43)C2)cn1 [Compound I-143] | < 100 | < 100 | – |
| CC(C)Oc1ccc(S(=O)(=O)N2C[C@H](n3nc(CC(=O)O)c4ccc(Cl)cc43)C[C@@H]2C)cc1 [Compound I-95] | < 100 | < 100 | – |
| CCOc1ccc(S(=O)(=O)N2C[C@H](C)[C@@H](n3nc(CC(=O)O)c4ccccc43)C2)cn1 [Compound I-201] | < 100 | 100 to 5000 | – |
| C=Cc1cc(OCC)ccc1S(=O)(=O)N1C[C@@H](C)[C@@H](n2nc(CC(=O)O)c3ccccc32)C1 [Compound I-276] | < 100 | < 100 | – |
| C[C@@H]1C[C@@H](n2nc(CC(=O)O)c3ccc(F)cc32)CCN1S(=O)(=O)c1ccc(F)cc1 [Compound I-79] | 100 to 5000 | 100 to 5000 | – |
| COc1ccc(S(=O)(=O)N2C[C@@H](C)[C@@H](n3nc(CC(=O)O)c4ccc(F)cc43)C2)nc1 [Compound I-234] | < 100 | 100 to 5000 | – |
| CC(C)Oc1ccc(S(=O)(=O)N2C[C@@H](C)[C@@H](n3nc(CC(=O)O)c4ccc(Cl)cc43)C2)cn1 [Compound I-146] | < 100 | < 100 | – |
| CC(C)Oc1ccc(S(=O)(=O)N2C[C@@H](C)[C@@H](n3nc(CC(=O)O)c4ccc(Cl)cc43)C2)cc1 [Compound I-135] | < 100 | < 100 | – |
| CCOc1ccc(S(=O)(=O)N2C[C@@H](C)[C@@H](n3nc(CC(=O)O)c4ccc(F)cc43)C2)cn1 [Compound I-108] | < 100 | < 100 | – |
| CCOc1ccc(S(=O)(=O)N2C[C@@H](C)[C@@H](n3nc(CC(=O)O)c4ccccc43)C2)c([N+](=O)[O-])c1 [Compound I-324] | < 100 | < 100 | – |
| CCOc1ccc(S(=O)(=O)N2C[C@@H](C)[C@@H](n3nc(CC(=O)O)c4cc5c(cc43)OCO5)C2)cn1 [Compound I-176] | < 100 | 100 to 5000 | – |
| CCCOC[C@H]1C[C@@H](n2nc(CC(=O)O)c3ccc(F)cc32)CN1S(=O)(=O)c1ccc(OC(C)C)cc1 [Compound I-327] | 100 to 5000 | 100 to 5000 | – |
| Cc1cccc2c1c(CC(=O)O)nn2[C@H]1CN(S(=O)(=O)c2ccc(OC(C)C)cc2)C[C@H]1C [Compound I-250] | 100 to 5000 | < 100 | – |
| CC(C)Oc1ccc(S(=O)(=O)N2C[C@@H](n3nc(CC(=O)O)c4ccc(F)cc43)C[C@H]2C)cc1 [Compound I-8] | < 100 | 100 to 5000 | – |
| CC1Cc2cc(S(=O)(=O)N3C[C@@H](C)[C@@H](n4nc(CC(=O)O)c5ccccc54)C3)ccc2O1 (stereo partly drawn) [Compound I-153] | < 100 | < 100 | 65 |

From US9725442B2, “Heterocyclic derivative having PGD2 receptor antagonist activity” (Shionogi & Co., Ltd., priority 2011, dated 2017)
